Experimental data as given in ChEMBL document CHEMBL6074671, “Discovery of Pyridine-2-Carboxamides Derivatives as Potent and Selective HPK1 Inhibitors for the Treatment of Cancer” (J Med Chem, 2024).
In brackets after ≈: the same amount, converted by molar mass.

Tests used:
[1] = Oral bioavailability n Sprague-Dawley rat at 10 mg/kg; type: ADME, organism-based; settings: in vivo
[2] = Dose normalized AUC (0 to 24 hrs) in Balb/c mouse at 10 mg/kg, po; type: ADME, organism-based; settings: in vivo
[3] = molecular target: T1, Mitogen-activated protein kinase kinase kinase kinase 3 (Homo sapiens, UniProt Q8IVH8); assay: Inhibition of human recombinant GST-tagged MAP4K3 ([…]) extracted from Baculovirus expression system
T1 sequence (Q8IVH8 whole entry): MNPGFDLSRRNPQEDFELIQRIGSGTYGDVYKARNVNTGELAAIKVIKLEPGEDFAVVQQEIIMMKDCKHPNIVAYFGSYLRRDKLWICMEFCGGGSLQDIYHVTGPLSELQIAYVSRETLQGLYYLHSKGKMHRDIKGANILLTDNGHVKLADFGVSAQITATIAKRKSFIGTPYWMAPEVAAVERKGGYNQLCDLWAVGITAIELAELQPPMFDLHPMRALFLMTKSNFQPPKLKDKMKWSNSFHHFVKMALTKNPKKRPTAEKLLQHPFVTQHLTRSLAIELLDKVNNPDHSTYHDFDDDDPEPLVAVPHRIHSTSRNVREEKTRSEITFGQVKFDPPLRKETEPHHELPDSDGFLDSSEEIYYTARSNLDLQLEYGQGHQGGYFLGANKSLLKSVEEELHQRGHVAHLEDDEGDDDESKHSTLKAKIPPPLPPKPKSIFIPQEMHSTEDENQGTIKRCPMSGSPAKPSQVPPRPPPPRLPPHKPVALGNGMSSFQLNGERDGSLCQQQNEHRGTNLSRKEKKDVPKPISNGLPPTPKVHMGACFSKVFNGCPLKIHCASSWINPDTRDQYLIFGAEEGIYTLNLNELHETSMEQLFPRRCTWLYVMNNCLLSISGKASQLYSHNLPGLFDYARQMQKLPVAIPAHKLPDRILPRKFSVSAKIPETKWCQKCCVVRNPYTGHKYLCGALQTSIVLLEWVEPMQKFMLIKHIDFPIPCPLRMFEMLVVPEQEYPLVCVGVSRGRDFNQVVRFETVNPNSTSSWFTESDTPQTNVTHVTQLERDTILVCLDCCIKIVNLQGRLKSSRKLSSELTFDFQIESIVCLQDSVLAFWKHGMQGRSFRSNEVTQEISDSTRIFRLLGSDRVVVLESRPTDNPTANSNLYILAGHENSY

[4] = molecular target: Mitogen-activated protein kinase kinase kinase kinase 4 (Homo sapiens, UniProt O95819); assay: Inhibition of catalytic domain N-terminal GST tagged human MAP4K4 (1 to 328 residues) expressed in insect Sf21 cells
[5] = molecular target: Serine/threonine-protein kinase 4 (Homo sapiens, UniProt Q13043); assay: Inhibition of MST1 (unknown origin)
Sequence of Serine/threonine-protein kinase 4 (Q13043 whole entry): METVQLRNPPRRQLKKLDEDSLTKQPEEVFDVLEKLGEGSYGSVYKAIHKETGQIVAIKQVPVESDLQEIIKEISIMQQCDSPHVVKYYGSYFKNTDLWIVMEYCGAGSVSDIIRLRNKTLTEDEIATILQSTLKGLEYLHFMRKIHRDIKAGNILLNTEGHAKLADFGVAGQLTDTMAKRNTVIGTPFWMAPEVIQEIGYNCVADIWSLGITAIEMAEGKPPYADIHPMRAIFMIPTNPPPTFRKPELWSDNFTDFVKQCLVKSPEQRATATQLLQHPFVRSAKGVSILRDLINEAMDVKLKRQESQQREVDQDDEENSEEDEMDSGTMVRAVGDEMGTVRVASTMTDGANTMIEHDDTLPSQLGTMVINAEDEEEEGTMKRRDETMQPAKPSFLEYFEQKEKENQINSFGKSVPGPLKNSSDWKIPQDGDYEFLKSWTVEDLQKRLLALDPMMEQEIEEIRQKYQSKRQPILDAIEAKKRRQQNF

[6] = molecular target: Tyrosine-protein kinase JAK3 (Homo sapiens, UniProt P52333); assay: Inhibition of JAK3 (unknown origin)
Sequence of Tyrosine-protein kinase JAK3 (P52333 whole entry): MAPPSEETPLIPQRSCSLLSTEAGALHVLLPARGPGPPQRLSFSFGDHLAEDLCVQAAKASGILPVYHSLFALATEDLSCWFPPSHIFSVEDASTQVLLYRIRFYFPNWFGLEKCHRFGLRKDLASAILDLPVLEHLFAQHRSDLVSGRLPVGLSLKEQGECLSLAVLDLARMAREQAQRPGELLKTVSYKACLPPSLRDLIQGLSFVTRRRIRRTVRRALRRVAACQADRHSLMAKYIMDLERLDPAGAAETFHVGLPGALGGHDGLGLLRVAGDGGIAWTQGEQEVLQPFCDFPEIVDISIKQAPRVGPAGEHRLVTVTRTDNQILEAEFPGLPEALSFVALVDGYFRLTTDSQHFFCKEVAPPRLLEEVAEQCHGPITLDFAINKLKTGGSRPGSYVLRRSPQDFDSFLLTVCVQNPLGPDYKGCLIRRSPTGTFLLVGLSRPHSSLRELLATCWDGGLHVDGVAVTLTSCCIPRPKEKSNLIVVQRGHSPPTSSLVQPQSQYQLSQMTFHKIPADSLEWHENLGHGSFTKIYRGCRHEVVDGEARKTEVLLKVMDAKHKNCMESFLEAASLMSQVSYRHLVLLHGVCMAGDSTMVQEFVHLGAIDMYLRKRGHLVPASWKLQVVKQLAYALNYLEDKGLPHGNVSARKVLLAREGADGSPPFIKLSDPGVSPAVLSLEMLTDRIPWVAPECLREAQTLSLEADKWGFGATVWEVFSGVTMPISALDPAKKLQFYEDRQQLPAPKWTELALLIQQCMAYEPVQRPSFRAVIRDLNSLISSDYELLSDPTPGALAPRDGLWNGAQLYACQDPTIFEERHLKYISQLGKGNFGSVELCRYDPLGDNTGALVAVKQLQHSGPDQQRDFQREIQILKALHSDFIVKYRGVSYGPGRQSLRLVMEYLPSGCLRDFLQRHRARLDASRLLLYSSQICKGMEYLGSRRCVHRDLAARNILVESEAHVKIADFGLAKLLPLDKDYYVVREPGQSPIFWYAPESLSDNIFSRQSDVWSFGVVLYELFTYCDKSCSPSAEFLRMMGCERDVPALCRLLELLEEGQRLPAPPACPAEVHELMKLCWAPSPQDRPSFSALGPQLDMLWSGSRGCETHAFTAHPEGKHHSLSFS

[7] = molecular target: Mitogen-activated protein kinase kinase kinase 7 (Homo sapiens, UniProt O43318); assay: Inhibition of TAK1 (unknown origin)
Sequence of Mitogen-activated protein kinase kinase kinase 7 (O43318 whole entry): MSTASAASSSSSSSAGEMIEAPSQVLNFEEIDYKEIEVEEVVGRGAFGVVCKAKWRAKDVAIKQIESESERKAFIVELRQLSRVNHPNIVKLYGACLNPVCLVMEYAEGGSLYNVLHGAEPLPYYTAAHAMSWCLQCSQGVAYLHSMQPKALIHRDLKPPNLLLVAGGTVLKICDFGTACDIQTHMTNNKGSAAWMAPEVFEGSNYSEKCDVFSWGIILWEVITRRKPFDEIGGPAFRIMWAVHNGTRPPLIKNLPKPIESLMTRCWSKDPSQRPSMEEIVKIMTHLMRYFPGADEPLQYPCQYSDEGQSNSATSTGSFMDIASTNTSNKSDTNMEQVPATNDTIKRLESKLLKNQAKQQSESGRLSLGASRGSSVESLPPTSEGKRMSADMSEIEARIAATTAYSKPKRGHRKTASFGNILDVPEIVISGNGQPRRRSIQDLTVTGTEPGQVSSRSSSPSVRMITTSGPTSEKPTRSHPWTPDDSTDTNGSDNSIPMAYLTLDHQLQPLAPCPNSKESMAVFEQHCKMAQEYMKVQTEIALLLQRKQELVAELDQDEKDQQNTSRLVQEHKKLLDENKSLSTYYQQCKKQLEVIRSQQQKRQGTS

[8] = molecular target: Tyrosine-protein kinase ITK/TSK (Homo sapiens, UniProt Q08881); assay: Inhibition of ITK (unknown origin)
Sequence of Tyrosine-protein kinase ITK/TSK (Q08881 whole entry): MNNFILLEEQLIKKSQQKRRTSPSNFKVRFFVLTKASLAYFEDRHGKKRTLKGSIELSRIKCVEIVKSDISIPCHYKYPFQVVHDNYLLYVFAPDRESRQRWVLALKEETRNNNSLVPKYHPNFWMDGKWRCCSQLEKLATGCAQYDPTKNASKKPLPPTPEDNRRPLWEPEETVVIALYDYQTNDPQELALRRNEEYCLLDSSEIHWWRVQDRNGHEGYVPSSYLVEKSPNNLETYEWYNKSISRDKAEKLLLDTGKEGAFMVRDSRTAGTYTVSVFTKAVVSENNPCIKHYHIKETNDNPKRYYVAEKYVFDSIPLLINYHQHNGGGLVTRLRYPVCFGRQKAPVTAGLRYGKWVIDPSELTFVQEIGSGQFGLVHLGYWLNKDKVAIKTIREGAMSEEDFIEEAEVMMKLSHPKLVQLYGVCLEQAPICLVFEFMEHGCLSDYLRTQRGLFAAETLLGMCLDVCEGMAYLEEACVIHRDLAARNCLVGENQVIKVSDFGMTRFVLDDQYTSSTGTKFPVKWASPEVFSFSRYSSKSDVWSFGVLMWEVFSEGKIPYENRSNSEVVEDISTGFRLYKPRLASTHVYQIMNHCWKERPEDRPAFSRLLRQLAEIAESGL

[9] = molecular target: Proto-oncogene tyrosine-protein kinase receptor Ret (Homo sapiens, UniProt P07949); assay: Inhibition of RET (unknown origin)
[10] = Toxicity in C57BL/6 mouse implanted with mouse MC38 cells assessed as increase in survival at high dose, po BID measured after 12 days; type: organism-based; settings: in vivo, 288 h, time 12 day
[11] = Toxicity in C57BL/6 mouse implanted with mouse MC38 cells assessed as increase in survival at low dose, po BID measured after 12 days in presence of anti-PD-1; type: organism-based; settings: in vivo, 288 h, time 12 day
[12] = Kinetic solubility of the compound in PBS buffer at pH 7.4 measured after 24 hrs by HPL-UV analysis; type: physicochemical; settings: read-out: Kinetic_solubility
[13] = Plasma protein binding in human assessed as unbound fraction at 2 uM incubated for 4 hrs by LC-MS/MS analysis; type: ADME, cell-free
[14] = molecular target: Voltage-gated inwardly rectifying potassium channel KCNH2 (Homo sapiens, UniProt Q12809); assay: Inhibition of human ERG expressed in CHO cells; type: toxicity, cell-based
Sequence of Voltage-gated inwardly rectifying potassium channel KCNH2 (Q12809 whole entry): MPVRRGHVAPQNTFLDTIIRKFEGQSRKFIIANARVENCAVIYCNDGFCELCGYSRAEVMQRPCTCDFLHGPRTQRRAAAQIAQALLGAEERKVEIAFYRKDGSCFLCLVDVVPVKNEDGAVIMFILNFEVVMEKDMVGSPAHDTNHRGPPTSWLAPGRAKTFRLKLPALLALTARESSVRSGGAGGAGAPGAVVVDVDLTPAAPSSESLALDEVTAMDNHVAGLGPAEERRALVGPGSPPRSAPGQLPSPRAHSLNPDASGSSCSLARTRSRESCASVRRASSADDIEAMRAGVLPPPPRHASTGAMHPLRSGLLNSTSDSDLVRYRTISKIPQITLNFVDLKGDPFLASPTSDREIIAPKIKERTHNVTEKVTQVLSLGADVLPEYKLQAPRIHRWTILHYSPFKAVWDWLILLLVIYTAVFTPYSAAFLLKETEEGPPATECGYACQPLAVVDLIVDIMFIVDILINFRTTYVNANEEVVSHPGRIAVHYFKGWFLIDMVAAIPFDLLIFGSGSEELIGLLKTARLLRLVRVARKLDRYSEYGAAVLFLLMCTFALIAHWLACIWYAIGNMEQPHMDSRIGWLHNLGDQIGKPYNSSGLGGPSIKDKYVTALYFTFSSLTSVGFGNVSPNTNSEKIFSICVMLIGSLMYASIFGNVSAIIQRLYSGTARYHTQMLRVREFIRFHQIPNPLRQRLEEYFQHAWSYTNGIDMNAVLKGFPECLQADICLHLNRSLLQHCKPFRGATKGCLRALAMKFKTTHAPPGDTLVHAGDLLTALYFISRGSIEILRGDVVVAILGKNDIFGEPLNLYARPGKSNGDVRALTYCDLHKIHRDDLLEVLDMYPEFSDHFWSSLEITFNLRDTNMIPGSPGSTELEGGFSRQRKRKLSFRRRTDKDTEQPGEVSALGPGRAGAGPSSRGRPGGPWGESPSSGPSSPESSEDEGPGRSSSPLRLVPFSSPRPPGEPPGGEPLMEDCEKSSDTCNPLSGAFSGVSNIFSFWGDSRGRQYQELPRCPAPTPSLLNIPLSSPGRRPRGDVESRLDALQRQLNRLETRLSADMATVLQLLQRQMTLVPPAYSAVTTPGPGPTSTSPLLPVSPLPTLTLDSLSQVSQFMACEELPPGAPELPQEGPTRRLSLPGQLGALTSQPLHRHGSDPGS

[15] = Effect on IFN-gamma secretion in human T cells by ELISA method; type: functional, cell-based; settings: T-cell
[16] = dog, in vivo, po, 2 mg/kg
[17] = cynomolgus monkey, in vivo, po, 2 mg/kg
in vivo = settings: Beagle, dog, plasma, iv, 1 mg/kg
Description: Clearance in Beagle dog plasma at 1 mg/kg, iv

With `COc1cc(Nc2ccc3c(n2)CN(C)C32CCN(C3COC3)CC2)c(C(N)=O)nc1-c1cccc2c1ncn2C` the bioavailability [1] was 34.7%, the AUC/dose [2] was 408.8 ng·h/mL and the IC50 [3] was 325 nM. The IC50 [4] was 377 nM, the IC50 [5] was 500 nM and the IC50 [6] was > 10000 nM. The IC50 [7] was > 10000 nM, the IC50 [8] was > 10000 nM and the IC50 [9] was 2990 nM. For the same compound, the Activity [10] was “Non-toxic”, the Activity [11] was “Non-toxic” and the solubility kinetic at 24 h [12] was 2.14 µM (≈ 1.19 µg/mL). For the same compound, the fraction unbound at 4 h, 2 µM [13] was 0.129, the IC50 [14] was > 10000 nM and the EC50 [15] was 49.2 nM. For the same compound, the AUC/dose [16] was 563 ng·h/mL, the AUC/dose [17] was 560.5 ng·h/mL and the clearance (in vivo) was 11.4 mL/min/kg.
